# Results taken from patent publication US9708321B2, “Spiro-quinazolinone derivatives and their use as positive allosteric modulators of mGluR4” (Merck Patent GmbH, priority 2013, dated 2017).
# Biological target: T1, hmGluR4 (Homo sapiens, UniProt Q14833)
# T1 construct: host or cells: HEK293T
# Assay: HEK-293 mGluR4 cells cAMP assay with EC20 L-Glutamate (HTRF)
# Type: cell-based
# Details: not given
# Method: II. Biological Assays HEK-293 mGluR4 Cells cAMP Assay with EC20 L-Glutamate
# Using mGluR4 suspension cell format, 10 μM Forskolin (final conc.) used to induce the production of cAMP.
# Test the positive allosteric activity of the compounds of the invention at EC20 (2.3 μM for mGluR4 and 4.3 μM for mGluR6) L-Glutamate,
# cAMP dymanic2 kit is intended for the direct quantitative determination of cAMP and its principle is based on HTRF technology.
# • Cells: HEK293T mGluR4 cells from Multispan, cat# C1191a lot# C1191a-040910 • Culture Media: DMEM+GlutaMAX1+10% dialyzed FBS, 100 mM Sodium Pyruvate, 1 ug/ml puromycin. • Glutamine Starvation Media: DMEM without GlutaMax for plating the cells (glutamine starvation overnight). DMEM high Glucose, without phenol red, glutamine, or sodium pyruvate+10% dialyzed FBS, 100 mM Sodium Pyruvate, 1 ug/ml puromycin, 10 mM Hepes. • Hanks' balanced Salt Solution, HBSS from Invitrogen • Greiner 384 well white low volume high base plate (784075) • cAMP dynamic2 from Cisbio Bioassays • Glutamate: L-Glutamaic acid, monosodium salt, Monohydrate, 98%, from Sigma-Aldrich • Cell Preparation: split cells at 80%-90% confluence. The following day, rinse the cells with DMEM without GlutaMax and change to Glutamine Starvation Media. Incubate overnight. Assay: • Prepare compound plate: Perform compound serial dilution (uses Matrix 4341 plate), using the Bravo liquid handling platform protocol (compound serial dilution) which adds DMSO to columns 1-24 (except cols. 3 and 13). Serial dilute compounds located in columns 3 and 13 at a 1:3 ratio; 10 points (10 ul of 3 mM compound into 20 ul DMSO). Use the Bravo liquid handling platform to transfer 1 ul from the serial dilution plate into Matrix 4314 plate to create stamp plates. Prepare Compound Dilution Buffer: • Dilute 20 mM Forskolin (in DMSO) stock solution in HBSS buffer to make a 20 uM solution (forskolin buffer; 2× solution). To the forskolin buffer, add glutamate to a concentration of 8 uM (compound dilution buffer; 2× EC20 glutamate and forskolin). • Using a multidrop, add 50 ul/well of compound dilution buffer to columns 1-22 of the 2 ul compound stamp plate. Columns 23 and 24 receive forskolin buffer containing 400 uM glutamate (EC100 glutamate; 2× solution). Columns 1 and 2 receive compound dilution buffer containing EC20 glutamate, which is the basal control. • Add a glutamate dose response to row P of compound plate. Prepare the dose response by serial diluting glutamate at a 1:3 ratio in forskolin buffer starting at 2 mM glutamate (2×). Dilute the glutamate 9 times and transfer to compound plate. Prepare Cell Plates: • Harvest cells: Rinse cells with pre-warmed HBSS-10 mM HEPES (without Ca Mg) and dissociate the cells from the flask with versene. Centrifuge the cells, remove the supernatant and suspend in pre-warmed HBSS+10 mM Hepes. Count the cells and centrifuge. Remove the supernatant and suspend the cells in HBSS+Hepes (with Ca Mg) at a density of 400,000 cells/ml. Perform Assay: • Dispense 5 ul from the diluted compound plate into Greiner low volume cell plate using the Bravo liquid handling platform. Using a Multidrop with the small tubing cassette, dispense 5 ul of cells (2000 cells/well) onto the compounds contained in the low volume plates. Incubate the cells at 37° C., 5% CO2 for 30 minutes in the incubator. Assay for cAMP: • Prepare cAMP-d2 and anti-cAMP-Crytate according to the instructions for the two step assay (see Cisbio manual) and add 10 ul of the mixed reagent to each well of the assay plate using the Multidrop. Incubate at room temperature for 60 minutes and read on the Envision plate reader using the mGluR low volume cAMP HTRF 384 well protocol.
# T1 sequence (Q14833 33-912): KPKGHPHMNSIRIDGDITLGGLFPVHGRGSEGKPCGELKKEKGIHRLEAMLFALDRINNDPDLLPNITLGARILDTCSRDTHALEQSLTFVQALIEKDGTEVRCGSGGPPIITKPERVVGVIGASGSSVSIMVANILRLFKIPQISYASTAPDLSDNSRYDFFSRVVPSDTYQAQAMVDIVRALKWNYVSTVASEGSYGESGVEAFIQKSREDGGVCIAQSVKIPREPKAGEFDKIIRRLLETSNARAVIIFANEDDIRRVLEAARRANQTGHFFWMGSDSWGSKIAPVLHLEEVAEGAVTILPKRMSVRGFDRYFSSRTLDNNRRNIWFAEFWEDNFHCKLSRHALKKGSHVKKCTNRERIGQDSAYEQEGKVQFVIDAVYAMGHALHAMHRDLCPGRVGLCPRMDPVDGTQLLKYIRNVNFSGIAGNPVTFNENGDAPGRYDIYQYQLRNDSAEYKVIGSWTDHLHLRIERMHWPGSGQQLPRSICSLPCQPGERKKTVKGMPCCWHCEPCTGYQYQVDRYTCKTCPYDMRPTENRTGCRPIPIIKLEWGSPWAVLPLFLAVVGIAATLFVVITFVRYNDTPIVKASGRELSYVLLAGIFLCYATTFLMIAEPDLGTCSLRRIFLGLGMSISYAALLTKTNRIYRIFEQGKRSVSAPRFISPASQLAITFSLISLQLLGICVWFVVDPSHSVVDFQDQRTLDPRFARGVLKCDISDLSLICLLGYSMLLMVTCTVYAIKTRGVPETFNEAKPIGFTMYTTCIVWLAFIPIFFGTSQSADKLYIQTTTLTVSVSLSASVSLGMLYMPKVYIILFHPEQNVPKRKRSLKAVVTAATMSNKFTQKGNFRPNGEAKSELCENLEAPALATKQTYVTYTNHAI
row,SMILES,EC50
1,"COc1ccc(N2C(=O)c3ccc(Br)cc3NC23CCN(Cc2ccc(F)c(F)c2)CC3)cc1F [Compound 24, 7′-Bromo-1-(3,4-difluorobenzyl)-3′-(3-fluoro-4-methoxyphenyl)-1′H-spiro[piperidine-4,2′-quinazolin]-4′(3′H)-one]",< 1000 nM

# Same assay, conditions: positive allosteric activity at EC20 L-Glutamate, 10 μM Forskolin, HEK293T mGluR4 cells, cAMP HTRF; read-out: hrmGluR4/HEK293T-hmGluR4 (EC50)
row,SMILES,EC50
1,"CCOC(=O)c1ccc2c(c1)NC1(CCN(Cc3ccc(F)c(F)c3)CC1)N(c1ccc(OC)cc1)C2=O [Compound 1, Ethyl 1-(3,4-difluorobenzyl)-3′-(4-methoxyphenyl)-4′-oxo-3′,4′-dihydro-1′H-spiro[piperidine-4,2′-quinazoline]-7′-carboxylate]",< 1000 nM
2,"Cc1cc2cc(N3C(=O)c4ccc(Br)cc4NC34CCN(Cc3ccc(F)c(F)c3)CC4)ccc2o1 [Compound 2, 7′-Bromo-1-(3,4-difluorobenzyl)-3′-(2-methylbenzofuran-5-yl)-1′H-spiro[piperidine-4,2′-quinazolin]-4′(3′H)-one]",< 1000 nM
3,"COc1ccc(N2C(=O)c3ccc(C(=O)OC(C)C)cc3NC23CCN(Cc2ccc(F)c(F)c2)CC3)cc1 [Compound 3, Isopropyl 1-(3,4-difluorobenzyl)-3′-(4-methoxyphenyl)-4′-oxo-3′,4′-dihydro-1′H-spiro[piperidine-4,2′-quinazoline]-7′-carboxylate]",< 1000 nM
4,"COC(=O)c1ccc2c(c1)NC1(CCN(Cc3ccc(F)c(F)c3)CC1)N(c1ccc(OC)cc1)C2=O [Compound 4, Methyl 1-(3,4-difluorobenzyl)-3′-(4-methoxyphenyl)-4′-oxo-3′,4′-dihydro-1′H-spiro[piperidine-4,2′-quinazoline]-7′-carboxylate]",< 1000 nM
5,"CSc1ccc(N2C(=O)c3ccc(Br)cc3NC23CCN(Cc2ccc(F)c(F)c2)CC3)cc1 [Compound 5, 7′-Bromo-1-(3,4-difluorobenzyl)-3′-(4-(methylthio)phenyl)-1′H-spiro[piperidine-4,2′-quinazolin]-4′(3′H)-one]",< 1000 nM
6,"O=C1c2ccc(-c3ccco3)cc2NC2(CCN(Cc3ccc(F)c(F)c3)CC2)N1c1ccc(OC(F)(F)F)cc1 [Compound 6, 1-(3,4-Difluorobenzyl)-7′-(furan-2-yl)-3′-(4-(trifluoromethoxy)phenyl)-1′H-spiro[piperidine-4,2′-quinazolin]-4′(3′H)-one]",< 1000 nM
7,"CC(c1ccc(F)c(F)c1)N1CCC2(CC1)Nc1cc(Br)ccc1C(=O)N2c1ccc(Cl)cc1 (stereo not drawn) [Compound 7, 7′-Bromo-3′-(4-chlorophenyl)-1-(1-(3,4-difluorophenyl)ethyl)-1′H-spiro[piperidine-4,2′-quinazolin]-4′(3′H)-one]",< 1000 nM
8,"CC(c1ccc(F)c(F)c1)N1CCC2(CC1)Nc1cc(Br)ccc1C(=O)N2c1ccc(OC(F)(F)F)cc1 (stereo not drawn) [Compound 8, 7′-Bromo-1-(1-(3,4-difluorophenyl)ethyl)-3′-(4-(trifluoromethoxy)phenyl)-1′H-spiro[piperidine-4,2′-quinazolin]-4′(3′H)-one]",< 1000 nM
9,"O=C1c2ccc(-c3ccncn3)cc2NC2(CCN(Cc3ccc(F)c(F)c3)CC2)N1c1ccc(OC(F)(F)F)cc1 [Compound 9, 1-(3,4-Difluorobenzyl)-7′-(pyrimidin-4-yl)-3′-(4-(trifluoromethoxy)phenyl)-1′H-spiro[piperidine-4,2′-quinazolin]-4′(3′H)-one]",< 1000 nM
10,"O=C1c2ccc(C(F)(F)F)cc2NC2(CCN(Cc3cccc(Cl)c3)CC2)N1c1ccc(OC(F)(F)F)cc1 [Compound 10, 1-(3-Chlorobenzyl)-3′-(4-(trifluoromethoxy)phenyl)-7′-(trifluoromethyl)-1′H-spiro[piperidine-4,2′-quinazolin]-4′(3′H)-one]",< 1000 nM
11,"COc1ccc(N2C(=O)c3ccc(-c4ccco4)cc3NC23CCN(Cc2ccc(F)c(F)c2)CC3)cc1 [Compound 11, 1-(3,4-Difluorobenzyl)-7′-(furan-2-yl)-3′-(4-methoxyphenyl)-1′H-spiro[piperidine-4,2′-quinazolin]-4′(3′H)-one]",< 1000 nM
12,"CC(=O)c1cc2c(cc1Br)C(=O)N(c1ccc(OC(F)(F)F)cc1)C1(CCN(Cc3ccc(F)c(F)c3)CC1)N2 [Compound 12, 7′-Acetyl-6′-bromo-1-(3,4-difluorobenzyl)-3′-(4-(trifluoromethoxy)phenyl)-1′H-spiro[piperidine-4,2′-quinazolin]-4′(3′H)-one]",< 1000 nM
13,"COc1ccc(N2C(=O)c3ccccc3NC23CCN(Cc2cc(Cl)ccc2Cl)CC3)cc1 [Compound 13, 1-(2,5-Dichlorobenzyl)-3′-(4-methoxyphenyl)-1′H-spiro[piperidine-4,2′-quinazolin]-4′(3′H)-one]",< 1000 nM
14,"COc1ccc(N2C(=O)c3ccc(-c4nccs4)cc3NC23CCN(Cc2ccc(F)c(F)c2)CC3)cc1 [Compound 14, 1-(3,4-Difluorobenzyl)-3′-(4-methoxyphenyl)-7′-(thiazol-2-yl)-1′H-spiro[piperidine-4,2′-quinazolin]-4′(3′H)-one]",< 1000 nM
15,"COC(=O)c1ccc2c(c1)NC1(CCN(Cc3ccccc3)CC1)N(c1ccc(OC)cc1)C2=O [Compound 15, Methyl 1-benzyl-3′-(4-methoxyphenyl)-4′-oxo-3′,4′-dihydro-1′H-spiro[piperidine-4,2′-quinazoline]-7′-carboxylate]",< 1000 nM
16,"O=C1c2ccc(C(F)(F)F)cc2NC2(CCN(Cc3ccc(F)c(F)c3)CC2)N1c1ccc(OC(F)(F)F)cc1 [Compound 16, 1-(3,4-Difluorobenzyl)-3′-(4-(trifluoromethoxy)phenyl)-7′-(trifluoromethyl)-1′H-spiro[piperidine-4,2′-quinazolin]-4′(3′H)-one]",< 1000 nM
17,"COc1ccc(N2C(=O)c3ccc(Br)cc3NC23CCN(Cc2ccc(F)c(F)c2)CC3)cc1 [Compound 17, 7′-Bromo-1-(3,4-difluorobenzyl)-3′-(4-methoxyphenyl)-1′H-spiro[piperidine-4,2′-quinazolin]-4′(3′H)-one]",< 1000 nM
18,"CCOC(=O)c1ccc2c(c1)NC1(CN(Cc3ccccc3Cl)C1)N(c1ccc(OC(F)(F)F)cc1)C2=O [Compound 18, Ethyl 1-(2-chlorobenzyl)-4′-oxo-3′-(4-(trifluoromethoxy)phenyl)-3′,4′-dihydro-1′H-spiro[azetidine-3,2′-quinazoline]-7′-carboxylate]",< 1000 nM
19,"COc1ccc(N2C(=O)c3ccc(-c4ccccc4)cc3NC23CCN(Cc2ccc(F)c(F)c2)CC3)cc1 [Compound 19, 1-(3,4-Difluorobenzyl)-3′-(4-methoxyphenyl)-7′-phenyl-1′H-spiro[piperidine-4,2′-quinazolin]-4′(3′H)-one]",< 1000 nM
20,"COc1ccc(N2C(=O)c3ccc(-c4ccncc4)cc3NC23CCN(Cc2ccc(F)c(F)c2)CC3)cc1 [Compound 20, 1-(3,4-Difluorobenzyl)-3′-(4-methoxyphenyl)-7′-(pyridin-4-yl)-1′H-spiro[piperidine-4,2′-quinazolin]-4′(3′H)-one]",< 1000 nM
21,"O=C1c2ccc(N3CCOCC3)cc2NC2(CCN(Cc3ccc(F)c(F)c3)CC2)N1c1ccc(OC(F)(F)F)cc1 [Compound 21, 1-(3,4-Difluorobenzyl)-7′-morpholino-3′-(4-(trifluoromethoxy)phenyl)-1′H-spiro[piperidine-4,2′-quinazolin]-4′(3′H)-one]",< 1000 nM
22,"CCC(c1ccc(F)c(F)c1)N1CCC2(CC1)Nc1cc(Br)ccc1C(=O)N2c1ccc(OC(F)(F)F)cc1 (stereo not drawn) [Compound 22, 7′-Bromo-1-(1-(3,4-difluorophenyl)propyl)-3′-(4-(trifluoromethoxy)phenyl)-1′H-spiro[piperidine-4,2′-quinazolin]-4′(3′H)-one]",< 1000 nM
23,"COc1ccc(N2C(=O)c3ccc(F)cc3NC23CCN(Cc2ccc(F)c(F)c2)CC3)cc1 [Compound 23, 1-(3,4-Difluorobenzyl)-7′-fluoro-3′-(4-methoxyphenyl)-1′H-spiro[piperidine-4,2′-quinazolin]-4′(3′H)-one]",< 1000 nM
